Consider 88 compounds from ChEMBL document CHEMBL3227967, “Quantitative structure-activity relationships in 1-aryl-2-(alkylamino)ethanol antimalarials” (J Med Chem, 1979).

This assay deals with Plasmodium berghei. Briefly: Antimalarial activity against Plasmodium berghei. Type of assay: functional.

Take `CCCC(CCC)NCC(O)c1cc(-c2ccc(C(F)(F)F)cc2)nc(-c2ccc(C(F)(F)F)cc2)c1` (stereo not drawn): the “log(1/C)” value is on record as 4.35.
For `CCN(CC)CC(O)c1cc(-c2cccs2)nc2cccc(Br)c12` (stereo not drawn), the “log(1/C)” value stood at 2.38.
For `CC(C)CN(C)CC(O)c1cc(-c2ccc(Cl)cc2)nc(-c2ccc(Cl)cc2)c1` (stereo not drawn), the “log(1/C)” value is reported as 3.29.
Turning to `CCOc1ccc2nccc(C(O)C[N+]34CCC(CC3)C(CC)C4)c2c1` (stereo not drawn), the “log(1/C)” value was 1.97.
The same measure for `OC(CC1CCCCN1)c1cc2ccc(Br)cc2c2cc(Br)ccc12` (stereo not drawn): 3.31; for `CCCCN(CCCC)CC(O)c1cc2c(Cl)cc(Cl)cc2c2ccsc12` (stereo not drawn): 3.2.
As for `CCCCN(CCCC)CC(O)c1c(OC)c(-c2ccc(Cl)cc2)nc2c(C)cc(C)cc12` (stereo not drawn), the “log(1/C)” value came out at 3.26.
Take `CCCCCCCN(CCCCCCC)CC(O)c1cc2ccc(F)cc2c2ccccc12` (stereo not drawn): the “log(1/C)” value was found to be 2.32.
On to `CCCCCCN(CCCCCC)CC(O)c1cccc2c1cc(Cl)c1ccccc12` (stereo not drawn), for which the “log(1/C)” value was 2.39.
For the compound `Cc1ccc(-c2cc(C(O)CC3CCCCN3)c3cccc(C(F)(F)F)c3n2)cc1` (stereo not drawn), the “log(1/C)” value worked out at 3.94.
The same measure for `CCCCN(CCCC)CC(O)c1cc(C(=O)c2cccc(Cl)c2)nc2c(C(F)(F)F)cc(Cl)cc12` (stereo not drawn): 3.98; for `OC(CNC1CCC1)c1cc(-c2ccc(C(F)(F)F)cc2)nc(-c2ccc(C(F)(F)F)cc2)c1` (stereo not drawn): 3.85.
For `CCCCN(CCCC)CC(O)c1cc(-c2ccc3c(c2)OCO3)nc2cc(Cl)ccc12` (stereo not drawn), the “log(1/C)” value was 3.09.
Consider `CCCCCCCN(CCCCCCC)CC(O)c1cc2sccc2c2cc(Cl)sc12` (stereo not drawn), for which the “log(1/C)” value was determined as 2.64.
Consider `CCCCN(CCCC)CC(O)c1cc2cc(Br)ccc2c2cc(C(F)(F)F)ccc12` (stereo not drawn), for which the “log(1/C)” value was 4.07.
With `CCCCN(CCCC)CC(O)c1cc(-c2ccc(O)cc2)nc2c(Cl)cc(Cl)cc12` (stereo not drawn), the “log(1/C)” value was determined as 2.66.
`CCCCN(CCCC)CC(O)c1cc(-c2ccc(C(F)(F)F)cc2)nc(-c2ccc(Cl)c(Cl)c2)c1` (stereo not drawn): the “log(1/C)” value is recorded as 3.16.
In the case of `CCCCCCN(CCCCCC)CC(O)c1cc2ccccc2c2ccccc12` (stereo not drawn), the “log(1/C)” value came to 2.4.
Take `CCCCN(CCCC)CC(O)c1cc2ccc(C(F)(F)F)cc2c2ccccc12` (stereo not drawn): the “log(1/C)” value was 2.8.
Take `CCCCCCN(CCCCCC)CC(O)c1cc(-c2ccc(Cl)cc2)nc(-c2ccc(Cl)cc2)c1` (stereo not drawn): the “log(1/C)” value worked out at 3.18.
`CCCCN(CCCC)CC(O)c1cc2cc(C(F)(F)F)ccc2c2ccccc12` (stereo not drawn): the “log(1/C)” value was found to be 3.79.
With `CCCCN(CCCC)CC(O)c1c(Cl)cc2ccc(-c3ccc(Cl)cc3)nc2c1Cl` (stereo not drawn), the “log(1/C)” value was determined as 3.02.
The same measure for `CCCCCCCN(CCCCCCC)CC(O)c1cccc2c1cc(Cl)c1ccccc12` (stereo not drawn): 2.5.
As to `CCCCCCCN(CCCCCCC)CC(O)c1cc2ccccc2c2ccc(Cl)cc12` (stereo not drawn), the “log(1/C)” value came out at 2.97.
The same measure for `OC(CC1CCCCN1)c1cc2ccccc2c2cc(Br)ccc12` (stereo not drawn): 3.49; for `CCCCCCCN(CCCCCCC)CC(O)c1cc2ccccc2c2cc(C(F)(F)F)ccc12` (stereo not drawn): 3.56.
As to `CCCCN(CCCC)CC(O)c1cc2sccc2c2cc(Cl)sc12` (stereo not drawn), the “log(1/C)” value came out at 3.36.
As for `CCCCN(CCCC)CC(O)c1c2ccccc2cc2ccccc12` (stereo not drawn), the “log(1/C)” value is on record as 2.35.
Consider `CC(C)(C)NCC(O)c1cc2ccc(Br)cc2c2cc(Br)ccc12` (stereo not drawn), for which the “log(1/C)” value came to 3.61.
Regarding `CCCCN(CCCC)CC(O)c1cc(/C=C/c2ccc(Cl)cc2)nc(C23CC4CC(CC(C4)C2)C3)c1` (stereo not drawn), the “log(1/C)” value is listed as 2.72.
Regarding `OC(CC1CCCCN1)c1cc(-c2ccc(C(F)(F)F)cc2)nc(-c2ccc(C(F)(F)F)cc2)c1` (stereo not drawn), the “log(1/C)” value amounted to 4.19.
`Cc1cccc2c(C(O)CC3CCCCN3)cc(-c3ccc(F)cc3)nc12` (stereo not drawn): the “log(1/C)” value was 3.72.
Take `CCCCNCC(O)c1cc(-c2ccc(Cl)cc2)nc2cc(Cl)c(OC)cc12` (stereo not drawn): the “log(1/C)” value was determined as 3.88.
As to `CCCCN(CCCC)CC(O)c1cc(-c2ccc(OC)cc2)nc(-c2ccc(Cl)c(Cl)c2)c1` (stereo not drawn), the “log(1/C)” value is listed as 2.68.
The figure for `CCCCN(CCCC)CC(O)c1cc(-c2ccc(Cl)cc2)nc2c(C(F)(F)F)cc(OC)cc12` (stereo not drawn) is 3.93; for `CCCCN(CCCC)CC(O)c1cc(-c2ccc(Cl)cc2)nc2c(C)cc(C)cc12` (stereo not drawn) it is 3.9; for `CCCCNCC(O)c1cc(-c2ccccc2C(F)(F)F)nc(C(F)(F)F)c1` (stereo not drawn) it is 3.78.
For the compound `CCCCCCN(CCCCCC)CC(O)c1cc(-c2ccc(Cl)c(Cl)c2)nc2cc(OC)ccc12` (stereo not drawn), the “log(1/C)” value was found to be 3.1.
On to `CCCCNCCC(O)c1cc2ccc(C(F)(F)F)cc2c2cc(C(F)(F)F)ccc12` (stereo not drawn), for which the “log(1/C)” value came out at 4.73.
Turning to `CCCCN(CCCC)CC(O)c1cc(-c2ccc(Cl)cc2)nc2cc(F)ccc12` (stereo not drawn), the “log(1/C)” value was found to be 3.62.
For `CCCCCCN(CCCCCC)CC(O)c1cc(-c2ccc(F)cc2)nc(-c2ccc(F)cc2)c1` (stereo not drawn), the “log(1/C)” value stood at 2.58.
Take `CCCCCCCCNCC(O)c1cc(-c2ccc(C(F)(F)F)cc2)nc(-c2ccc(C(F)(F)F)cc2)c1` (stereo not drawn): the “log(1/C)” value stood at 3.76.
The figure for `CCNC(C)(C)CC(O)c1cc(C(F)(F)F)nc2c(C(F)(F)F)cccc12` (stereo not drawn) is 2.54; for `CCCCN(CCCC)CC(O)c1cc(-c2ccc(Cl)c(Cl)c2)cc2cc(Cl)c(OC)cc12` (stereo not drawn) it is 3.06; for `OC(CC1CCCCN1)c1cc(-c2ccccc2)nc2c(C(F)(F)F)cccc12` (stereo not drawn) it is 3.68.
As to `CCCCCCCN(CCCCCCC)CC(O)c1ccc2cc3ccccc3cc2c1` (stereo not drawn), the “log(1/C)” value is given as 2.62.
With `CCCCCCCN(CCCCCCC)CC(O)c1c2cccc(Cl)c2cc2c(Cl)cccc12` (stereo not drawn), the “log(1/C)” value was 3.92.
In the case of `CCCCN(CCCC)CC(O)c1c2ccccc2c(Cl)c2ccccc12` (stereo not drawn), the “log(1/C)” value amounted to 3.51.
Take `CC(C)NCC(O)c1cc2ccc(C(F)(F)F)cc2c2cc(C(F)(F)F)ccc12` (stereo not drawn): the “log(1/C)” value is reported as 3.8.
As for `OC(CC1CCCCN1)c1cc2cc(Cl)c(Cl)cc2c2cc(C(F)(F)F)ccc12` (stereo not drawn), the “log(1/C)” value is 4.19.
For the compound `CCCCN(CCCC)CC(O)/C(=C/c1ccc(C(F)(F)F)cc1)c1ccc(C(F)(F)F)cc1` (stereo not drawn), the “log(1/C)” value was 3.22.
The figure for `COc1cc(C(F)(F)F)c2nc(C(F)(F)F)cc(C(O)CC3CCCCN3)c2c1` (stereo not drawn) is 3.98; for `CCCCN(CCCC)CC(O)c1cccc2ccc3ccccc3c12` (stereo not drawn) it is 2.09.
`CCCCN(CCCC)CC(O)c1cc(-c2ccc(Cl)cc2)nc(-c2ccc(Br)cc2)c1` (stereo not drawn): the “log(1/C)” value was found to be 3.36.
For `COc1ccc(-c2cc(C(O)CC3CCCCN3)c3cc(C)ccc3n2)cc1` (stereo not drawn), the “log(1/C)” value was 3.
The same measure for `CCCCN(CCCC)CC(O)c1cc2cc(Br)c(Br)cc2c2cc(Br)ccc12` (stereo not drawn): 3.97; for `OC(CN1CCOCC1)c1cc(-c2ccccc2)nc2c(Cl)cc(Cl)cc12` (stereo not drawn): 2.23; for `CCCCN(CCCC)CC(O)c1cc(-c2ccc(Cl)c(Cl)c2)nc2ccc(OC)cc12` (stereo not drawn): 3.33.
The figure for `CCOCCN(CCOCC)CC(O)c1cc(-c2ccc(Cl)c(Cl)c2)nc2ccc(OC)cc12` (stereo not drawn) is 2.83; for `CCCCCCCN(CCCCCCC)CC(O)c1cc2ccc(C(F)(F)F)cc2c2ccsc12` (stereo not drawn) it is 2.69.
As to `CCCCCCCN(CCCCCCC)CC(O)c1cc(-c2ccc(Cl)cc2)nc2c(C(F)(F)F)cccc12` (stereo not drawn), the “log(1/C)” value was 3.13.
On to `Cc1cc(C)c2cc(C(O)CC3CCCCN3)c3ccc(C(F)(F)F)cc3c2c1` (stereo not drawn), for which the “log(1/C)” value is reported as 3.25.
Consider `CCCCN(CCCC)CC(O)c1cc(Cl)cc2c1-c1ccc(Cl)cc1C2=O` (stereo not drawn), for which the “log(1/C)” value amounted to 3.39.
As to `CCCCCCCCN(CCCCCCCC)CC(O)c1ccc(Br)c2ccccc12` (stereo not drawn), the “log(1/C)” value turned out to be 2.24.
As to `OC(CNCc1ccccc1)c1cc(-c2ccc(Cl)c(Cl)c2)nc2c(Cl)cc(Cl)cc12` (stereo not drawn), the “log(1/C)” value was 3.66.
Regarding `CCCCN(CCCC)CC(O)c1c(C)c(-c2ccc(Cl)cc2)nc2c(Cl)cc(Cl)cc12` (stereo not drawn), the “log(1/C)” value is 3.06.
As to `CCCCCCCN(CCCCCCC)CC(O)c1cc2ccc(Cl)cc2c2cc(C(F)(F)F)ccc12` (stereo not drawn), the “log(1/C)” value amounted to 3.61.
The figure for `CCCCN(CCCC)CC(O)c1cc2ccsc2c2ccccc12` (stereo not drawn) is 2.38; for `CCCCCCCN(CCCCCCC)CC(O)c1c2ccccc2cc2ccccc12` (stereo not drawn) it is 3.07; for `CCCCN(CCCC)CC(O)c1cc2ccc(Cl)cc2c2cc(Cl)ccc12` (stereo not drawn) it is 3.79.
The same measure for `CCCCN(CCCC)CC(O)c1cc2c(Cl)cc(Cl)cc2c2cnccc12` (stereo not drawn): 2.94.
In the case of `CCCCNCC(O)c1cc(-c2cccc(C(F)(F)F)c2)nc(C(F)(F)F)c1` (stereo not drawn), the “log(1/C)” value stood at 3.69.
Take `OC(CC1CCCCN1)c1cc2cc(Br)ccc2c2cc(Br)ccc12` (stereo not drawn): the “log(1/C)” value stood at 4.13.
In the case of `CCCCN(CCCC)CC(O)c1cc(-c2ccc(Cl)cc2)nc2c(Cl)cc(Cl)cc12` (stereo not drawn), the “log(1/C)” value was found to be 4.03.
Regarding `CCNCC(O)c1cc2ccc(C(F)(F)F)cc2c2cc(C(F)(F)F)ccc12` (stereo not drawn), the “log(1/C)” value is reported as 4.39.
In the case of `CCCCN(CCCC)CC(O)c1cc2cc(Br)c(Br)cc2c2cc(C(F)(F)F)ccc12` (stereo not drawn), the “log(1/C)” value was determined as 4.31.
In the case of `CCCCCCCN(CCCCCCC)CC(O)c1cc2ccncc2c2ccccc12` (stereo not drawn), the “log(1/C)” value was 2.33.
As for `CCCCCCCN(CCCCCCC)CC(O)c1cc2ccccc2c2cc(Br)ccc12.O=C(O)CCC(=O)O` (stereo not drawn), the “log(1/C)” value was 3.52.
Regarding `OC(CC1CCCCN1)c1cc(C(F)(F)F)nc2cc(C(F)(F)F)ccc12` (stereo not drawn), the “log(1/C)” value was determined as 4.05.
`CCCCCCCN(CCCCCCC)CC(O)c1cccc2c1ccc1ccc(Cl)cc12` (stereo not drawn): the “log(1/C)” value came to 2.54.
Take `OC(CC1CCCCN1)c1cc2ccc(Br)cc2c2cc(C(F)(F)F)ccc12` (stereo not drawn): the “log(1/C)” value was 3.7.
Consider `OC(CC1CCCCN1)c1cc2cc(Br)c(Br)cc2c2cc(C(F)(F)F)ccc12` (stereo not drawn), for which the “log(1/C)” value is on record as 3.58.
The figure for `CCCCCCCN(CCCCCCC)CC(O)c1c(OC)c2cc(Br)ccc2c2ccc(Br)cc12` (stereo not drawn) is 3.35; for `CCCCCCN(CCCCCC)CC(O)c1cc2ccc(Br)cc2c2cc(Br)ccc12` (stereo not drawn) it is 3.51.
On to `CCCCCCNCC(O)c1cc2ccc(C(F)(F)F)cc2c2cc(C(F)(F)F)ccc12` (stereo not drawn), for which the “log(1/C)” value worked out at 3.78.
For `CCCCN(CCCC)CC(O)c1cc2c(Cl)cc(Cl)cc2c2c(Cl)cc(Cl)cc12` (stereo not drawn), the “log(1/C)” value is 4.05.
For the compound `CCCCN(CCCC)CC(O)c1cc(Cl)cc2cc3ccccc3cc12` (stereo not drawn), the “log(1/C)” value was determined as 2.72.
In the case of `CCCC(CCC)NCC(O)c1cc2ccc(C(F)(F)F)cc2c2cc(C(F)(F)F)ccc12` (stereo not drawn), the “log(1/C)” value was found to be 4.33.
